From ChEMBL document CHEMBL1201862, “PubChem BioAssay data set” (2004)
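Method: 48-hour compound exposure of cells in 96-well plates, five concentrations, linear interpolation of endpoints. GI50 marks 50% less growth.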 Activity calls are given as the source filed them. No stated cut-off is given here; in the data, active = GI50 up to about 1.1 µM and inactive = higher.

Legend:
Test in all cases: DTP human tumour cell line panel, 48 h
OVCAR-8 = system: OVCAR-8
K562 = system: K562
SF-295 = system: SF-295
LOX IMVI = system: LOX IMVI
HT-29 = system: HT-29
SNB-75 = system: SNB-75
UACC-257 = system: UACC-257
SN12C = system: SN12C
EKVX = system: EKVX
SK-MEL-2 = system: SK-MEL-2
HCT-116 = system: HCT-116
SF-539 = system: SF-539
UACC-62 = system: UACC-62
U-251 = system: U-251
SF-268 = system: SF-268
CAKI-1 = system: CAKI-1
A549 = system: A549
SR = system: SR

| Structure (SMILES) | GI50 (OVCAR-8) | GI50 (K562) | GI50 (SF-295) | GI50 (LOX IMVI) | GI50 (HT-29) | GI50 (SNB-75) | GI50 (UACC-257) | GI50 (SN12C) | GI50 (EKVX) | GI50 (SK-MEL-2) | GI50 (HCT-116) | GI50 (SF-539) | GI50 (UACC-62) | GI50 (U-251) | GI50 (SF-268) | GI50 (CAKI-1) | GI50 (A549) | GI50 (SR) |
| --- | --- | --- | --- | --- | --- | --- | --- | --- | --- | --- | --- | --- | --- | --- | --- | --- | --- | --- |
| CC1CCSC(N(C(=O)N(C)c2ccccc2)c2ccccc2)=N1 (stereo not given) | > 100 µM (inactive) | > 100 µM (inactive) | > 100 µM (inactive) | > 100 µM (inactive) | > 100 µM (inactive) | > 100 µM (inactive) | > 100 µM (inactive) | > 100 µM (inactive) | > 100 µM (inactive) | > 100 µM (inactive) | > 100 µM (inactive) | > 100 µM (inactive) | > 100 µM (inactive) | > 100 µM (inactive) | > 100 µM (inactive) | > 100 µM (inactive) | > 100 µM (inactive) | – |
| Fc1cccc2cc3ccc4cccc5ccc(c12)c3c45 | > 100 µM (inactive) | > 100 µM (inactive) | > 100 µM (inactive) | > 100 µM (inactive) | > 100 µM (inactive) | > 100 µM (inactive) | > 100 µM (inactive) | > 100 µM (inactive) | 2.66 µM (inactive) | – | > 100 µM (inactive) | > 100 µM (inactive) | > 100 µM (inactive) | > 100 µM (inactive) | > 100 µM (inactive) | > 100 µM (inactive) | > 100 µM (inactive) | 0.0146 µM (active) |
| O=C(c1ccccn1)c1nc(-c2ccc(Cl)c(Cl)c2)nc2ccc(Cl)cc12 | > 100 µM (inactive) | 92 µM (inactive) | 31.1 µM (inactive) | – | > 100 µM (inactive) | 12.3 µM (inactive) | > 100 µM (inactive) | – | 74.5 µM (inactive) | 34.3 µM (inactive) | 15.5 µM (inactive) | 18.1 µM (inactive) | 39.2 µM (inactive) | 44.1 µM (inactive) | – | 56.6 µM (inactive) | 41.6 µM (inactive) | – |
| COc1cc2c(c(OC)c1)C1(CC(CC#N)C2)SCCS1 (stereo not given) | > 100 µM (inactive) | > 100 µM (inactive) | – | – | – | 56.9 µM (inactive) | > 100 µM (inactive) | > 100 µM (inactive) | – | > 100 µM (inactive) | > 100 µM (inactive) | > 100 µM (inactive) | > 100 µM (inactive) | > 100 µM (inactive) | > 100 µM (inactive) | > 100 µM (inactive) | > 100 µM (inactive) | – |
| COc1cc2c(cc1OC)C(C(=O)c1cccc(OC)c1OC)C(=O)N(C)CC2 (stereo not given) | > 100 µM (inactive) | > 100 µM (inactive) | – | > 100 µM (inactive) | > 100 µM (inactive) | > 100 µM (inactive) | > 100 µM (inactive) | > 100 µM (inactive) | – | > 100 µM (inactive) | > 100 µM (inactive) | – | > 100 µM (inactive) | > 100 µM (inactive) | > 100 µM (inactive) | > 100 µM (inactive) | > 100 µM (inactive) | – |
| O=c1c(-c2ccccc2)c(O)nc2[nH]c3ccccc3n12 | > 100 µM (inactive) | > 100 µM (inactive) | > 100 µM (inactive) | > 100 µM (inactive) | > 100 µM (inactive) | > 100 µM (inactive) | > 100 µM (inactive) | > 100 µM (inactive) | > 100 µM (inactive) | > 100 µM (inactive) | > 100 µM (inactive) | > 100 µM (inactive) | > 100 µM (inactive) | > 100 µM (inactive) | > 100 µM (inactive) | > 100 µM (inactive) | > 100 µM (inactive) | 68.1 µM (inactive) |
| COC(=O)C(=O)C(C#N)c1cccc2ccccc12 (stereo not given) | > 100 µM (inactive) | > 100 µM (inactive) | > 100 µM (inactive) | > 100 µM (inactive) | > 100 µM (inactive) | 97.3 µM (inactive) | > 100 µM (inactive) | > 100 µM (inactive) | > 100 µM (inactive) | – | > 100 µM (inactive) | > 100 µM (inactive) | > 100 µM (inactive) | > 100 µM (inactive) | > 100 µM (inactive) | > 100 µM (inactive) | > 100 µM (inactive) | > 100 µM (inactive) |
| O=C(NC12CC3CCC1CC(C3)C2)[C@@H]1CCCN1C(=O)OCc1ccccc1 (stereo not given in full) | 50.5 µM (inactive) | 33.7 µM (inactive) | 36.1 µM (inactive) | 59 µM (inactive) | 36.5 µM (inactive) | 26.7 µM (inactive) | 34.7 µM (inactive) | 46.5 µM (inactive) | 69.5 µM (inactive) | 40.6 µM (inactive) | 58.9 µM (inactive) | > 100 µM (inactive) | 83.6 µM (inactive) | 42.4 µM (inactive) | 94.8 µM (inactive) | – | 50.4 µM (inactive) | 34.4 µM (inactive) |
| O=C1CC2CCN(C(=O)c3ccccc3)CC2CCN1 (stereo not given) | > 100 µM (inactive) | > 100 µM (inactive) | > 100 µM (inactive) | > 100 µM (inactive) | > 100 µM (inactive) | > 100 µM (inactive) | > 100 µM (inactive) | > 100 µM (inactive) | > 100 µM (inactive) | 0.578 µM (active) | > 100 µM (inactive) | > 100 µM (inactive) | > 100 µM (inactive) | > 100 µM (inactive) | > 100 µM (inactive) | – | > 100 µM (inactive) | > 100 µM (inactive) |
| COc1ccc(OC)c2[s+]snc12 | 31.7 µM (inactive) | 34.5 µM (inactive) | 55.7 µM (inactive) | 35.6 µM (inactive) | > 100 µM (inactive) | 93.5 µM (inactive) | 27.1 µM (inactive) | > 100 µM (inactive) | > 100 µM (inactive) | 33.8 µM (inactive) | 57.7 µM (inactive) | 21.4 µM (inactive) | 26.6 µM (inactive) | 28 µM (inactive) | 52.6 µM (inactive) | > 100 µM (inactive) | 40.1 µM (inactive) | 64.9 µM (inactive) |
| ONc1ncnc2[nH]cnc12 | > 100 µM (inactive) | 64.4 µM (inactive) | > 100 µM (inactive) | – | > 100 µM (inactive) | > 100 µM (inactive) | > 100 µM (inactive) | – | – | > 100 µM (inactive) | > 100 µM (inactive) | > 100 µM (inactive) | > 100 µM (inactive) | > 100 µM (inactive) | > 100 µM (inactive) | > 100 µM (inactive) | > 100 µM (inactive) | > 100 µM (inactive) |
| COc1ccc(OCC(=O)O)c2c1CCCC2=O | > 100 µM (inactive) | > 100 µM (inactive) | > 100 µM (inactive) | > 100 µM (inactive) | > 100 µM (inactive) | 62.8 µM (inactive) | > 100 µM (inactive) | > 100 µM (inactive) | > 100 µM (inactive) | > 100 µM (inactive) | > 100 µM (inactive) | > 100 µM (inactive) | 81.3 µM (inactive) | > 100 µM (inactive) | > 100 µM (inactive) | – | > 100 µM (inactive) | > 100 µM (inactive) |
| Nc1ccn([C@@H]2C[C@H](CO)[C@@H](O)[C@H]2O)c(=O)n1 | > 57.7 µM (inactive) | > 57.7 µM (inactive) | – | – | – | > 57.7 µM (inactive) | > 57.7 µM (inactive) | > 57.7 µM (inactive) | > 57.7 µM (inactive) | > 57.7 µM (inactive) | > 57.7 µM (inactive) | > 57.7 µM (inactive) | > 57.7 µM (inactive) | > 57.7 µM (inactive) | > 57.7 µM (inactive) | > 57.7 µM (inactive) | > 57.7 µM (inactive) | > 57.7 µM (inactive) |
| COC(=O)/C=C/C1C2C3(CCC(C)C12C)OCCS3 (stereo not given) | > 100 µM (inactive) | > 100 µM (inactive) | > 100 µM (inactive) | > 100 µM (inactive) | > 100 µM (inactive) | > 100 µM (inactive) | > 100 µM (inactive) | > 100 µM (inactive) | > 100 µM (inactive) | > 100 µM (inactive) | > 100 µM (inactive) | > 100 µM (inactive) | – | > 100 µM (inactive) | > 100 µM (inactive) | – | > 100 µM (inactive) | 43.1 µM (inactive) |
| C/C(=C\CNc1ncnc2c1ncn2C1CCCCO1)COP(=O)(O)O (stereo not given) | > 100 µM (inactive) | > 100 µM (inactive) | > 100 µM (inactive) | > 100 µM (inactive) | > 100 µM (inactive) | > 100 µM (inactive) | > 100 µM (inactive) | > 100 µM (inactive) | > 100 µM (inactive) | > 100 µM (inactive) | > 100 µM (inactive) | > 100 µM (inactive) | > 100 µM (inactive) | > 100 µM (inactive) | > 100 µM (inactive) | > 100 µM (inactive) | > 100 µM (inactive) | > 100 µM (inactive) |
| CNS(=O)(=O)NNS(=O)(=O)c1ccc(Br)cc1 | > 100 µM (inactive) | > 100 µM (inactive) | – | > 100 µM (inactive) | > 100 µM (inactive) | 47 µM (inactive) | > 100 µM (inactive) | – | > 100 µM (inactive) | > 100 µM (inactive) | 99.3 µM (inactive) | > 100 µM (inactive) | > 100 µM (inactive) | 28.3 µM (inactive) | > 100 µM (inactive) | > 100 µM (inactive) | > 100 µM (inactive) | – |
| COc1ccc2c(c1)CCc1c-2nc2cc3c(cc2c1O)OCO3 | > 100 µM (inactive) | > 100 µM (inactive) | > 100 µM (inactive) | > 100 µM (inactive) | > 100 µM (inactive) | > 100 µM (inactive) | – | > 100 µM (inactive) | > 100 µM (inactive) | > 100 µM (inactive) | > 100 µM (inactive) | > 100 µM (inactive) | > 100 µM (inactive) | > 100 µM (inactive) | > 100 µM (inactive) | > 100 µM (inactive) | > 100 µM (inactive) | > 100 µM (inactive) |
